Source: PMC8426299, “Effect of severe renal impairment on the pharmacokinetics of brigatinib” (Investigational New Drugs, 2021)
Entries after “also recorded” stand apart in the source; their conditions may differ. Where two headings read alike, the source gives them in different places.

Key:
[1] = Plasma protein binding of brigatinib by rapid equilibrium dialysis (RED) of participants' plasma samples; assay type: in vitro ADME, human; details: human, plasma samples of dosed participants, averaged over 2, 8, 24 h postdose, read-out: overall mean (SD) fraction unbound (converted)
Description: (§1) Blood samples were collected at 2, 8, and 24 h after brigatinib administration to determine the plasma protein binding of brigatinib.
(§2) Free brigatinib in plasma samples was separated from protein-bound brigatinib by dialyzing the samples across a semipermeable dialysis membrane (8000-Da mass cutoff) using Thermo Scientific™ Single-Use RED (rapid equilibrium dialysis) Plates. For each RED dialysis unit, an aliquot (200 µL) of plasma was transferred into the donor chamber and an aliquot (350 µL) of warm (37 °C) phosphate buffered saline (PBS) was transferred into the receiver chamber of the dialysis unit. The RED devices were incubated at 37 °C with gentle shaking (250 rpm on a rotator shaker) for six hours. A 125-µL aliquot of plasma and 150-µL aliquot of PBS were removed from the dialysis unit and matrix-matched to a final composition of 50:50 (v:v) plasma:PBS, in Rain-X® treated 96-well plates. The matrix-matched samples were immediately frozen at − 80 °C. The protein binding assay and sample analysis were conducted at Charles River Laboratories, Inc. (Worcester, MA, USA). Samples were analyzed for brigatinib concentrations using liquid chromatography with tandem mass spectrometry (LC-MS/MS) methods that have been previously reported using a dual-range assay with a lower limit of quantitation of 0.100 ng/mL and an upper limit of quantitation of 500 ng/mL.
(§3) Individual participant plasma concentration-time profiles were analyzed via noncompartmental analysis methods using Phoenix WinNonlin (version 6.4) to estimate PK parameters. Plasma PK parameters calculated for brigatinib included maximum observed plasma concentration (Cmax); Tmax; area under the plasma concentration-time curve from time zero to the time of the last measurable concentration (AUC0 − last); AUC from time zero to infinity (AUC0−∞); terminal elimination half-life (t1/2); apparent oral clearance (CL/F); and apparent volume of distribution (V/F). The fraction of unbound brigatinib in plasma was determined using the following formula: % free (unbound) = [free brigatinib concentration measured in buffer after RED]/[total concentration measured in plasma] X 100. Unbound brigatinib plasma PK parameters (except unbound CL/F and V/F, which were calculated as total CL/F or total V/F divided by the overall mean fraction unbound) were calculated using the following formula: unbound PK parameter = (parameter based on total concentrations) x (individual participant’s overall mean fraction unbound value). Urinary PK parameters included the amount of brigatinib excreted from time zero to time t (Ae0 − t,), fraction of the dose excreted (%) from time zero to time t (Fe0 − t), and renal clearance (CLR).

plasma protein = test: as above; assay type: in vitro ADME, human
Description: as §1, §2, §3

[2] = Urinary pharmacokinetics after single oral dose of brigatinib 90 mg; assay type: in vivo, human; details: for CL renal: human, oral, 90 mg; for CL renal / Ae0–168, Range / Ae0–168, amount of brigatinib excreted from time zero to 168 hours, mean (SD) / Fe0–168, Range: urine
Description: Blood samples were collected before brigatinib administration (predose) and at 0.5, 1, 1.5, 2, 2.5, 3, 4, 6, 8, 12, 24, 36, 48, 60, 72, 96, 120, 144, and 168 h after brigatinib administration to determine plasma brigatinib concentrations. Urine was collected predose and during intervals (0–8, 8–12, 12–24, 24–48, 48–72, 72–96, 96–120, and 120–168 h) after brigatinib administration to determine urine brigatinib concentrations. Urine samples were subsequently diluted 50:50 (v:v) urine:isopropanol at the clinical site.
Plasma and urine samples were analyzed by Charles River Laboratories, Inc. (Worcester, MA, USA) by LC-MS/MS, as previously reported. Plasma samples were analyzed using a dual-range assay with a lower limit of quantitation of 0.100 ng/mL and an upper limit of 2500 ng/mL [11]. Urine samples were analyzed using a single-range assay with a lower limit of quantitation of 25.0 ng/mL and upper limit of 2500 ng/mL [11].
as §3

[3] = Safety assessment (adverse events, laboratory, ECG, vital signs) in the single-dose study; assay type: in vivo, human; details: single 90 mg dose
Description: Adverse events were recorded throughout the study. Physical examinations were performed at screening and on days − 1 and 8; height, weight, and BMI were collected only at screening. Vital signs were recorded at screening; on day − 1; at 0.5, 1, 2, 3, 4, 6, 8, 12, 24, 36, 48, 60, 72, 96, 120, and 144 h after brigatinib administration; and on day 8. Electrocardiograms were conducted at screening, day − 1, before the brigatinib dose, 3 and 48 h after brigatinib, and on day 8. Clinical laboratory evaluations were performed at screening and on days − 1 and 8.
Descriptive statistics, including number of observations (n), arithmetic mean, standard deviation (SD), coefficient of variation (CV%), median, minimum, and maximum, were calculated for each time point for brigatinib plasma concentrations in each study group. Arithmetic mean; SD; CV%; median, minimum, and maximum values; and geometric mean and geometric CV% were calculated for all PK parameters except Tmax, which was reported as median (minimum, maximum). Statistical comparisons of brigatinib PK parameters (unbound) were made using a one-factor analysis of variance, and 90 % CIs for the geometric mean ratios (GMRs) were calculated for the comparison of Cmax, AUC0 − last, and AUC0−∞ between study groups. Descriptive statistics were used to present safety outcomes, including number and percentage of participants with adverse events.

[4] = cited from earlier work
[5] = set-up: method as in ref 11 = [11]; PMID 31287236; doi:10.1002/cpdd.723; 11. Tugnait M Gupta N Hanley MJ Sonnichsen D Kerstein D Dorer DJ Venkatakrishnan K Narasimhan N Effects of strong CYP2C8 or CYP3A inhibition and CYP3A induction on the pharmacokinetics of brigatinib; details: cited from earlier work
[6] = set-up: method as in PMID 30570839; details: cited from earlier work
native EML4-ALK = system: native EML4-ALK; set-up: method as in PMID 27780853; details: compared with crizotinib, ceritinib, and alectinib; nonclinical studies; cited from earlier work
[7] = severe renal impairment vs normal renal function

fraction unbound at 6 h ([1]; healthy volunteers with normal renal function): 0.09
fraction unbound at 6 h ([1]; patients with severe renal impairment): 0.08
concentration dependence of protein binding (plasma protein; mean fraction unbound at 2, 8, 24 h postdose, both renal function groups): not concentration-dependent
effect of severe renal impairment on brigatinib plasma protein binding (plasma protein; [7]): no effect
CL renal ([2]; Normal Renal Function (n=8), read-out: CLR, Range): 27.5 to 63.7 mL/min
CL renal ([2]; Normal Renal Function (n=8), read-out: CLR, renal clearance, mean (SD)): 41.5 mL/min
CL renal ([2]; Severe Renal Impairment (n=8), read-out: CLR, Range): 5.4 to 13.4 mL/min
CL renal ([2]; Severe Renal Impairment (n=8), read-out: CLR, renal clearance, mean (SD)): 9.17 mL/min
renal clearance as share of overall clearance of brigatinib ([2]; in vivo): approximately 25%
renal clearance of unbound brigatinib, fold lower ([2]; severe renal impairment compared with normal renal function): approximately five-fold
reduction of fraction of dose excreted in urine 0 to 168 h [2, 7]: approximately 50%
nonrenal clearance, percent lower ([2]; severe renal impairment vs normal renal function, derived from renal clearance share): approximately 50%
Ae0–168, Range ([2]; Normal Renal Function (n=8)): 11.58 to 21.77 mg
Ae0–168, amount of brigatinib excreted from time zero to 168 hours, mean (SD) ([2]; Normal Renal Function (n=8)): 16.90 (3.57) mg
Fe0–168, Range ([2]; Normal Renal Function (n=8)): 12.9–24.2%
Ae0–168, Range ([2]; Severe Renal Impairment (n=7)): 3.92 to 14.36 mg
Ae0–168, amount of brigatinib excreted from time zero to 168 hours, mean (SD) ([2]; Severe Renal Impairment (n=7)): 7.58 (3.77) mg
Fe0–168, Range ([2]; Severe Renal Impairment (n=7)): 4.36–16.0%
SMILES: COc1cc(N2CCC(N3CCN(C)CC3)CC2)ccc1Nc1ncc(Cl)c(Nc2ccccc2P(C)(C)=O)n1 [brigatinib]
clinically significant laboratory values or electrocardiogram findings ([3]; all participants): no participant had clinically significant laboratory values or electrocardiogram findings
adverse events ([3]; healthy volunteers with normal renal function (n = 8)): No healthy volunteers with normal renal function reported adverse events
treatment-emergent adverse events ([3]; patients with severe renal impairment (n = 8)): Two patients with severe renal impairment reported three treatment-emergent adverse events
dose proportionality / linearity of systemic exposure [4]: dose proportional over the dose range of 60 mg to 240 mg qd; also recorded: dose-linear and time-independent PK
geometric mean accumulation ratio after repeat dosing [4]: 1.9 to 2.4
oral dose excreted unchanged in the urine [4]: approximately 25%
median time to reach maximum plasma concentration (Tmax) ([4]; postdose): 1 to 3 h
decrease of systemic exposure (AUC) ([5]; coadministration of strong CYP3A inducers): 80%
increase of systemic exposure (AUC) ([5]; coadministration of strong CYP3A inhibitors): 101%
effect on systemic exposure (AUC) ([5]; coadministration with a strong inhibitor of CYP2C8): did not meaningfully affect
effect of a high-fat meal on total exposure (AUC) [6]: no effect
potency and selectivity as inhibitor of native EML4-ALK (native EML4-ALK): more potent and selective inhibitor of native EML4-ALK
